How the values were obtained:
Type in all cases: cell-based
[1] = biological target: T1, 5-hydroxytryptamine receptor 2A (Homo sapiens, UniProt P28223); experiment: Compound was evaluated for displacement of [3H]ketanserin from human cloned 5-hydroxytryptamine 2A receptor in transfected CHO-K1 cells
[2] = biological target: T2, 5-hydroxytryptamine receptor 2C (Homo sapiens, UniProt P28335); experiment: Displacement of [3H]mesulergine from human cloned 5-hydroxytryptamine 2C receptor expressed in CHO-K1 cells
T2 sequence (P28335 whole entry): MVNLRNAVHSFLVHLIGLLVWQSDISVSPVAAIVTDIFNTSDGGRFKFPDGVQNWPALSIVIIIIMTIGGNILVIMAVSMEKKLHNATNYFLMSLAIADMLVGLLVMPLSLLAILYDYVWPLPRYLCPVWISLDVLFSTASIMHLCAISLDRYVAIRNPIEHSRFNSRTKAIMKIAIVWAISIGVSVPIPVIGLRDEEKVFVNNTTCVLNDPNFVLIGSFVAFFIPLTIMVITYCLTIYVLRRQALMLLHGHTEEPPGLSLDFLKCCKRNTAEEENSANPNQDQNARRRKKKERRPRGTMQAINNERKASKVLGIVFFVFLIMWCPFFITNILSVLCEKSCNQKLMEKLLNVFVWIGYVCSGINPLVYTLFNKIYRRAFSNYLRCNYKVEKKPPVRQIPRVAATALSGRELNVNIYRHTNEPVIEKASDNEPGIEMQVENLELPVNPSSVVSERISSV

[3] = biological target: 5-hydroxytryptamine receptor 2B (Homo sapiens, UniProt P41595); experiment: Displacement of [3H]-5-5HT from human cloned 5-hydroxytryptamine 2B receptor expressed in CHO-K1 cells
5-hydroxytryptamine receptor 2B, sequence (P41595 whole entry): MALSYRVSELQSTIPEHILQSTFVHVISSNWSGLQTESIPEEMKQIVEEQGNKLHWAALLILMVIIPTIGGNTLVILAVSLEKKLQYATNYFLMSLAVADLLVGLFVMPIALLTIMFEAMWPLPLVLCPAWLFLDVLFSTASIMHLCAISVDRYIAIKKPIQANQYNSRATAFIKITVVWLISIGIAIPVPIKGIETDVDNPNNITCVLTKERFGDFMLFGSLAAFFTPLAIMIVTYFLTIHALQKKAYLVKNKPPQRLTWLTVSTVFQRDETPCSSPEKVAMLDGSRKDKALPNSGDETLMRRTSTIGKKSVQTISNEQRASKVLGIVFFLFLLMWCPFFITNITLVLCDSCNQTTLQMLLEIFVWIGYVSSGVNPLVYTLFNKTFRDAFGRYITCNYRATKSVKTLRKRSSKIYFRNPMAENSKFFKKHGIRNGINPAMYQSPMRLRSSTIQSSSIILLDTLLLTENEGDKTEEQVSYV

[4] = biological target: T1, 5-hydroxytryptamine receptor 2A; experiment: Displacement of [3H]-ketanserin from human cloned 5-hydroxytryptamine 2A receptor expressed in CHO-K1 cells.
[5] = biological target: 5-hydroxytryptamine receptor 2A (Rattus norvegicus, UniProt P14842); experiment: Compound was evaluated for displacement of [3H]ketanserin from cloned rat 5-hydroxytryptamine 2A receptor in transfected CHO-K1 cells.
5-hydroxytryptamine receptor 2A (Rattus norvegicus, UniProt P14842), sequence (P14842 whole entry, looked up): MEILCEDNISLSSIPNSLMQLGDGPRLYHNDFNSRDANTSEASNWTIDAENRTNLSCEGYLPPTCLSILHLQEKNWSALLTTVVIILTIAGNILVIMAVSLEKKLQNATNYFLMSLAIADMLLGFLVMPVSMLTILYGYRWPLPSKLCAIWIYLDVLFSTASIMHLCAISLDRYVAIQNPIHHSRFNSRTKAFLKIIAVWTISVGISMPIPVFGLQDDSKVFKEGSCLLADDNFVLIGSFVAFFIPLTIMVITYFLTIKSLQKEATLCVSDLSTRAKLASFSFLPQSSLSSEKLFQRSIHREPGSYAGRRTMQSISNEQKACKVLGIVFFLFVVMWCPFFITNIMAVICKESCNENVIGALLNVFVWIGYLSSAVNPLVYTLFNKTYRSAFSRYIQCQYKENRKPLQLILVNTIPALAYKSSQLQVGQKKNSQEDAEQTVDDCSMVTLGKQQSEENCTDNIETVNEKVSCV

[6] = biological target: T3, 5-hydroxytryptamine receptor 2C (Rattus norvegicus, UniProt P08909); experiment: Compound was evaluated for displacement of [3H]mesulergine from cloned rat 5-hydroxytryptamine 2C receptor in transfected CHO-K1 cells.
T3 sequence (P08909 whole entry): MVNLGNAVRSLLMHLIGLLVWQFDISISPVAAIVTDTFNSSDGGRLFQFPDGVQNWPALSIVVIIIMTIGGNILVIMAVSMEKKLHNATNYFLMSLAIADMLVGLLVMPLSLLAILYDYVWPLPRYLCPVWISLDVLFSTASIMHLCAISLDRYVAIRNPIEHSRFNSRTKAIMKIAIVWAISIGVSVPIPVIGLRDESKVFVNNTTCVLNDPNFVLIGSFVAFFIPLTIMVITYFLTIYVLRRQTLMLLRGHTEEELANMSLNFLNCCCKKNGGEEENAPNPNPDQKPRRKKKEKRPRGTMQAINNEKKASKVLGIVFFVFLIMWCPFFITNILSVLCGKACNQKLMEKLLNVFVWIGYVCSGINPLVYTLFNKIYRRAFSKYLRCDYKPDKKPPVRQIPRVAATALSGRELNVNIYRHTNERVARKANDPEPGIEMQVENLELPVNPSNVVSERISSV

T1 sequence (P28223 whole entry): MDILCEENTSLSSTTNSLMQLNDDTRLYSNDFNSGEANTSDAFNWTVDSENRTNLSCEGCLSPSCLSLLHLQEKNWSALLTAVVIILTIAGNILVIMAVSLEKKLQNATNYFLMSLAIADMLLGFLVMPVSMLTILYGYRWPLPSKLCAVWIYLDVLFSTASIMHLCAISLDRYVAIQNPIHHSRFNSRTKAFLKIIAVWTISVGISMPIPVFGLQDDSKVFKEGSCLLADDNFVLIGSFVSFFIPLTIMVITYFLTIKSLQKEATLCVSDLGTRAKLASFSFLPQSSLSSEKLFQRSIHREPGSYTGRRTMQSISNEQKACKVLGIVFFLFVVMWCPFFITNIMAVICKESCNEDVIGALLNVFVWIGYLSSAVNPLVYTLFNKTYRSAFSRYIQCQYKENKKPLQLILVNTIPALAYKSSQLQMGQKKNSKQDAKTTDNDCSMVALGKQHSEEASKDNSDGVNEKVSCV

SMILES	Ki [1]	Ki [2]	Ki [3]	Ki [4]	Ki [5]	Ki [6]
COc1ccc(OC)c(C(=O)CCCCN2CCC3(CC2)NC(=O)NC3=O)c1	0.02 µM	0.00316 µM	0.126 µM			
COc1cc(OC)c(-c2ccccc2)cc1C(=O)CCCCN1CCC2(CC1)NC(=O)NC2=O	0.398 µM	0.01 µM	0.1 µM			
COc1ccc(Oc2ccccc2)cc1C(=O)CCCCN1CCC2(CC1)NC(=O)NC2=O					0.00794 µM	0.00316 µM
COc1ccc(Cl)cc1C(=O)CCCCN1CCC2(CC1)NC(=O)NC2=O	0.0126 µM	0.00398 µM	0.0501 µM			
COc1cc(OC)c(C(=O)CCCCN2CCC3(CC2)NC(=O)NC3=O)cc1N					0.126 µM	0.0398 µM
COc1cc(Cl)ccc1C(=O)CCCCN1CCC2(CC1)NC(=O)NC2=O	0.126 µM	0.00631 µM	0.2 µM			
COc1ccccc1C(=O)CCCCN1CCC2(CC1)NC(=O)NC2=O	> 10 µM	> 10 µM	> 10 µM			
COc1cc(OC)c(C(=O)CCCCN2CCC3(CC2)NC(=O)NC3=O)cc1Cl					0.00501 µM	0.000631 µM
COc1cc(Cl)c(Cl)cc1C(=O)CCCCN1CCC2(CC1)NC(=O)NC2=O	0.00631 µM	0.000251 µM	0.00631 µM			
COc1ccc(-c2ccccc2)cc1C(=O)CCCCN1CCC2(CC1)NC(=O)NC2=O	0.001 µM	0.0002 µM	0.01 µM			
CN1C[C@@H](NS(=O)(=O)N(C)C)C[C@@H]2c3cccc4c3c(cn4C)C[C@H]21 [MESULERGINE]			0.002 µM	0.02 µM		
COc1cc(OC)c(C(=O)CCCCN2CCC3(CC2)NC(=O)NC3=O)cc1NS(=O)(=O)c1ccc(C(F)(F)F)cc1 [RS-102,221]		0.002 µM	0.316 µM	0.631 µM		
O=C(CCCN1CCC2(CC1)C(=O)NCN2c1ccccc1)c1ccc(F)cc1 [SPIPERONE]		0.631 µM	1.26 µM			

Second part, the molecule after the results:

Ki [1]	Ki [2]	Ki [3]	Ki [4]	Ki [5]	Ki [6]	SMILES
	0.398 µM	0.398 µM	> 10 µM			COc1cc(OC)c(C(=O)CCCCN2CCC3(CC2)NC(=O)NC3=O)cc1NS(=O)(=O)c1ccccc1Cl
				0.794 µM	0.1 µM	COc1cc(OC)c(C(=O)CCCCN2CCC3(CC2)NC(=O)NC3=O)cc1NS(=O)(=O)c1cccc(C(F)(F)F)c1
	0.01 µM	0.126 µM	> 10 µM			COc1cc(OC)c(C(=O)CCCCN2CCC3(CC2)NC(=O)NC3=O)cc1NS(=O)(=O)c1ccc(F)cc1
	0.0501 µM	0.2 µM	2 µM			COc1cc(OC)c(C(=O)CCCCN2CCC3(CC2)NC(=O)NC3=O)cc1NS(=O)(=O)c1cccc(Cl)c1
				0.00794 µM	0.002 µM	COc1ccc(NS(=O)(=O)c2ccc(Cl)cc2)cc1C(=O)CCCCN1CCC2(CC1)NC(=O)NC2=O
	0.0316 µM	0.631 µM	3.16 µM			COc1cc(OC)c(C(=O)CCCCN2CCC3(CC2)NC(=O)NC3=O)cc1NS(=O)(=O)c1ccccc1
	0.0398 µM	0.251 µM	> 10 µM			COc1cc(OC)c(C(=O)CCCCN2CCC3(CC2)NC(=O)NC3=O)cc1NS(=O)(=O)c1ccc(C(C)=O)cc1
				0.02 µM	0.00631 µM	COc1ccc(NS(=O)(=O)c2ccccc2)cc1C(=O)CCCCN1CCC2(CC1)NC(=O)NC2=O
	0.00501 µM	0.0794 µM	0.794 µM			COc1cc(OC)c(C(=O)CCCCN2CCC3(CC2)NC(=O)NC3=O)cc1NS(=O)(=O)c1ccc(Cl)cc1
	0.01 µM	0.316 µM	2.51 µM			COc1cc(OC)c(C(=O)CCCCN2CCC3(CC2)NC(=O)NC3=O)cc1NS(=O)(=O)c1ccc(C)cc1
	0.00794 µM	0.398 µM	0.794 µM			COc1cc(OC)c(C(=O)CCCCN2CCC3(CC2)NC(=O)NC3=O)cc1NS(=O)(=O)c1ccc(C#N)cc1
	0.0794 µM	3.16 µM	> 10 µM			COc1cc(OC)c(C(=O)CCCCN2CCC3(CC2)NC(=O)NC3=O)cc1NS(=O)(=O)c1ccc(S(N)(=O)=O)cc1
	0.02 µM	1.26 µM	2 µM			COc1ccc(S(=O)(=O)Nc2cc(C(=O)CCCCN3CCC4(CC3)NC(=O)NC4=O)c(OC)cc2OC)cc1
	0.00158 µM	0.398 µM	1 µM			COc1cc(OC)c(C(=O)CCCCN2CCC3(CC2)NC(=O)NC3=O)cc1NS(=O)(=O)c1ccc(OC(F)(F)F)cc1
	0.00158 µM	1.26 µM	1.26 µM			COc1cc(OC)c(C(=O)CCCCN2CCC3(CC2)NC(=O)NC3=O)cc1NS(=O)(=O)c1ccc(C(C)C)cc1
	0.0398 µM	0.316 µM	> 10 µM			COc1cc(OC)c(C(=O)CCCCN2CCC3(CC2)NC(=O)NC3=O)cc1NS(=O)(=O)c1ccc(NC(C)=O)cc1

Reference: ChEMBL document CHEMBL1128924, “Some benzenesulfonamido-substituted valerophenones that are selective antagonists for the 5-HT2C receptor” (Bioorg Med Chem Lett, 1996)
